Experimental data published in patent US6063789A, “Aminoisoquinolines and aminotheinopyridine derivatives and their use as anti-inflammatory agents” (priority 1996, dated 2000).
pIC50: −log10 of the molar value. Structures can show the parent of a compound that is named as a salt.

Key:
[1] = cited from J Med. Chem., vol 20, No 3, March 1977, pp 449 to 452; cited from earlier work
[2] = target: T1, inducible isoform of the enzyme nitric oxide synthase (NOS) (Mus musculus, UniProt P29477); experiment: nitric oxide synthetase activity screen (conversion of 3H-L-arginine to 3H-L-citrulline by lysate of induced J774A-1 macrophages); type: biochemical; conditions: lysate of LPS/IFNg-induced murine macrophage J774A-1 cells; 1 hour at room temperature; read-out: IC50 (the concentration of drug substance which gives 50% enzyme inhibition in the assay)
T1 construct: Nitric oxide synthase is produced by cells in response to interferon-g (IFNg) and lipopolysaccharide (LPS); endogenous in cells; host or cells: J774A-1 murine macrophage cell line, induced with LPS and IFN-gamma; crude cell lysate

Row | pIC50 [2] | Structure (SMILES) | antihypertensive activity [1]
1 | – | NC1=NCCc2ccccc21 [1-amino-3,4-dihydroisoquinoline] | has antihypertensive activity
2 | > 4.60 | NC1=NC(c2ccccc2)Cc2ccccc21 (centres unmarked) [Example 2, 1-Amino-3-phenyl-3,4-dihydroisoquinoline hydrochloride] | –
3 | > 4.60 | C#CC1Cc2ccccc2C(N)=N1 (centres unmarked) [Example 41, 1-Amino-3-ethynyl-3,4-dihydroisoquinoline hydrochloride] | –
4 | > 4.60 | NC1=NC(c2nccs2)Cc2ccccc21 (centres unmarked) [Example 46, 1-Amino-3-(2-thiazolyl)-3,4-dihydroisoquinoline hydrochloride] | –
5 | > 4.60 | CC1Cc2ccccc2C(N)=N1 (centres unmarked) [Example 49, 1-Amino-3-methyl-3,4-dihydroisoquinoline hydroiodide] | –
